# Test: In situ rotigotine salt screening (precipitate formation in ethanol/HFA 227 solution formulation)
# Type: physicochemical
# Details: 10% (w/w) ethanol in HFA 227; for Observation Immediate / Observation 1 week at RT / Observation 1 week at 5° C.: 1 mg/mL rotigotine free base with acid; for Observation Immediate: immediately upon preparation; for Observation 1 week at RT: stored 1 week at room temperature; for Observation 1 week at 5° C.: another week at 5° C. after 1 week at RT
# Protocol: Rotigotine, bulk drug substance, was purchased from Chemagis (Perrigo API). A stock solution of rotigotine was prepared by dissolving rotigotine particles in ethanol at 10 mg/mL. With 1.5 mL rotigotine stock solution added to formulation bottles, each formulation bottle contained 15 mg rotigotine. For preparation of acid stock solutions, it was assumed that complete reaction or ion-pairing between rotigotine and acid. Based on the molecular weight and number of anions of each acid as listed in Table 1, acids stock solutions were prepared by dissolving the required amount in ethanol.
# Each formulation bottle was filed with 1.5 mL of rotigotine stock solution and 1.0 ml, of acid stock solution. The formulation bottles (PET bottles) were then sealed with continuous valves and vortexed for 30 seconds to mix the solution well. Finally, 17.6 g of 1,1,1,2,3,3,3-heptafluoropropane (HFA227 (Mexichem)) to make a final volume of 15 mL of rotigotine formulation. All the bottles were hand shaken for 10 seconds.
# All in situ salt screening samples were made as 1 mg/mL of rotigtine free base in 10% (w/w) ethanol in HFA 227. Acids corresponding to the salt forms in Table 1 were added according to the molar ratio with rotigotine for complete reaction. As 1 mg/mL was the minimal required dose at the time of experiment, all formulations were tested at this level to screen out non-solution salt formulations.
# These were the rotigotine citrate, fumarate, succinate, sulfate, tartrate, xinafoate salt formulations. […] rotigotine salt formulations were immediately ruled out as the precipitate formation was not desired. All clear solution samples were stored at room temperature (RT) for 1 week. […] These were rotigotine acetate, benzoate and mesylate salt formulations. These 3 rotigotine salt formulations were also ruled out as precipitate formation is not desired. The rest of the samples remained as clear solutions (stable) at after another week at 5° C.
# Out of the 7 acids that remained a clear solution after 1 week of storage, rotigotine maleate was selected as the lead candidate and suitable as a stable solution for oral pulmonary aerosol delivery.
Observation Immediate,Observation 1 week at RT,Observation 1 week at 5° C.,stayed in solution formulation at the minimum required concentration (minimum required concentration 1 mg/mL),Molecule
solution,red precipitate,–,–,"CC(=O)O.CCCN(CCc1cccs1)[C@H]1CCc2c(O)cccc2C1 [Acetate, rotigotine acetate]"
solution,solution,solution,–,"CC(O)C(=O)O.CCCN(CCc1cccs1)[C@H]1CCc2c(O)cccc2C1 [Lactate, rotigotine lactate]"
white precipitate,–,–,–,O=S(=O)(O)O [Sulfate]
solution,red precipitate,–,–,Benzoate
white precipitate,–,–,–,Fumarate
white precipitate,–,–,–,Tartrate
white precipitate,–,–,–,rotigotine citrate
solution,solution,solution,–,rotigotine glycolate
solution,solution,solution,stayed in solution,rotigotine maleate
solution,solution,solution,–,rotigotine palmitate
solution,solution,solution,–,rotigotine pamoate
solution,solution,solution,–,rotigotine propionate
solution,solution,solution,–,rotigotine stearate

# Reference: patent publication US20140377189A1, “PULMONARY ADMINISTRATION OF ROTIGOTINE” (MAP Pharmaceuticals, Inc., priority 2013, published 2014)
